Measured values as given in patent publication US8680070B2, “Medical implants containing adenosine receptor agonists and methods for inhibitiing medical implant loosening” (New York University, priority 2007, dated 2014).

Legend:
TRAF6 protein = test: Western blotting of TRAF6 protein in RAW264.7 cells; assay type: cell-based, murine; conditions: 1 μg/ml for 4 days, then RANKL 30 ng/ml, β-actin as comparison
Method: Western blotting. Osteoclast precursors were preincubated with or without CGS21680 (1 μg/ml) or ZM241385 (1 μg/ml) for 4 days and then stimulated with RANKL (30 ng/ml) for the indicated period. For isolation of total proteins, cells were washed twice with PBS and lysed in RIPA buffer. Proteins were estimated and boiled with sample buffer for 5 min and were subjected to electrophoresis on 10% SDS-PAGE. Proteins were transferred onto a nitrocellulose membrane. Membranes were blocked for 2 hours in blocking solution (5% nonfat dry milk in TBS containing 0.1% Tween 20) and exposed to primary Abs overnight at 4° C. After washing, the membranes were incubated for 1 hour at room temperature with secondary Ab, and the proteins were detected using ECL reagents according to the manufacturer's instructions. To reprobe the membranes with other Abs, the membranes were stripped with 100 mM 2-ME, 2% SDS, and 62.5 mM Tris-HCl (pH 6.9) for 20 min at 50° C., followed by immunoblotting as described above.

RAW264.7 cells = test: Osteoclastogenesis: TRAP-positive multinucleated cells from RANKL-stimulated RAW264.7 cells; assay type: cell-based, murine; conditions: RANKL 30 ng/ml, four days of culture, vs untreated cells, listed as Adenosine A2A receptor antagonist
Method: Osteoclast formation was evaluated by quantification of TRAP-positive MNCs as described previously. TRAP is preferentially expressed at high levels in osteoclasts and is considered, especially in the mouse, to be an osteoclast marker. After incubation, cells on wells were washed in PBS, fixed in 4% paraformaldehyde for 10 min, and stained for acid phosphatase in the presence of 0.3 M sodium tartrate (Sigma-Aldrich). The substrate used was napthol AS-BI phosphate (Sigma-Aldrich). Only those cells that were strongly TRAP-positive (dark red) and have more than 3 nuclei were counted by light microscopy. To evaluate the size of the Osteoclast over time, we counted the number of nuclei per OCL in 50 OCLs for each of the three wells(n=150). The mean number of nuclei per OCL (MNN) and SE were calculated for each time-point, and ANOVA analysis was performed to determine statistically significant differences. RAW264.7 is a macrophage cell line having the capacity to form osteoclast-like cells. Because the RAW264.7 cells provide an excellent in vitro model for dissecting the cellular and molecular regulation of osteoclast differentiation and activation, we studied the effect of adenosine A2A receptors on the osteoclasts generated from the RAW264.7 cells. Cell Culture and Osteoclastogenesis. […]

Question: Which TRAF6 levels (TRAF6 protein) does the source give for `CCNC(=O)[C@H]1O[C@@H](n2cnc3c(N)nc(NCCc4ccc(CCC(=O)O)cc4)nc32)[C@H](O)[C@@H]1O` [A2A receptor agonist, CGS 21680] here?
Answer: diminish

Question: With `Nc1nc(NCCc2ccc(O)cc2)nc2nc(-c3ccco3)nn12` [adenosine A2A receptor antagonist, ZM241385] as the compound, how does the “osteoclast formation (number of multinucleated TRAP+ osteoclasts)” value (RAW264.7 cells) read?
Answer: increased number
